The record followed here is US9271971B2, “Pyrido[3,4-B]indoles and methods of use” (Medivation Technologies, Inc., priority 2009, dated 2016).

For assay [1], the target named is T1, human recombinant adrenergic α2C receptor (Homo sapiens, UniProt P18825).
T1 construct: expressed in transfected cells; host or cells: insect Sf9 cells
T1 sequence (P18825 1-462): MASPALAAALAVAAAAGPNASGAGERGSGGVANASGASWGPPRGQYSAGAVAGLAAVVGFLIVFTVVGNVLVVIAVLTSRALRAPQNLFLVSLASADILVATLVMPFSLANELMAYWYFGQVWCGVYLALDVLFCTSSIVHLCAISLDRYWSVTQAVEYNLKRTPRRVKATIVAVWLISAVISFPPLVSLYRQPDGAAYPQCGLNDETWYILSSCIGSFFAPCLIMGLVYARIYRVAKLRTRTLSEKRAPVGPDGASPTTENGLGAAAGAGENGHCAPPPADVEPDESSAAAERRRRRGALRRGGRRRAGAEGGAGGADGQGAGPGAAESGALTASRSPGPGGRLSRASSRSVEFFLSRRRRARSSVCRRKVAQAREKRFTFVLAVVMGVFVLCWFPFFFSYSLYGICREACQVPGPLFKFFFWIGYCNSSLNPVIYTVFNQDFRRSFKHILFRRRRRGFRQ
As to the kind of experiment: Adrenergic α2C radioligand binding assay. Conditions: [3H]MK-912 specific binding, read-out: Percent Inhibition of ligand binding, Adrenergic (0.1 μM ligand conc.) α2C. On the procedure:
To evaluate in radioligand binding assays the activity of compounds of the invention, human recombinant adrenergic α2C receptor expressed in insect Sf9 cells [Uhlen, S et al., J. Pharmacol. Exp. Ther. (1994), 271:1558] in a modified Tris-HCl buffer (50 mM Tris-HCl, pH 7.4, 12.5 mM MgCl2, 2 mM EDTA) was used. Compounds of the invention were incubated with 1 nM [^3H]MK-912 for 60 min. at 25° C. Non-specific binding was estimated in the presence of 10 μM WB-4101. Receptor proteins were filtered and washed, the filters were then counted to determine [^3H]MK-912 specifically bound. Compounds were screened at 1 μM or lower, using 1% DMSO as vehicle. Compounds of the invention were tested in this biochemical assay. Biochemical assay results for representative compounds were presented as the percent inhibition of specific binding in Table 3.

Assay [2] concerns the target T2, human recombinant serotonin (5-Hydroxytryptamine) 5-HT2A receptor (Homo sapiens, UniProt P28223).
T2 construct: expressed in transfected cells; host or cells: Chinese hamster ovary (CHO-K1) cells
Kind of assay: Serotonin 5-HT2A radioligand binding assay. Conditions: [3H]Ketanserin specific binding, read-out: Percent Inhibition of ligand binding, Serotonin (1 μM ligand concentration) 5-HT2A. The method, then: To evaluate in radioligand binding assays the activity of compounds of the invention, human recombinant serotonin (5-Hydroxytryptamine) 5-HT2A receptor expressed in Chinese hamster ovary (CHO-K1) cells [Bonhaus, D. W. et al., Br. J. Pharmacol. (1995), 115:622; Saucier, C. et al., J. Neurochem. (1997), 68:1998] in a 50 mM Tris-HCl buffer, pH 7.4, was used. Compounds of the invention were incubated with 0.5 nM [^3H]Ketanserin for 60 min. at 25° C. Non-specific binding was estimated in the presence of 1 μM Mianserin. Receptor proteins were filtered and washed, the filters were then counted to determine [^3H]Ketanserin specifically bound. Compounds were screened at 1 μM or lower, using 1% DMSO as vehicle. Biochemical assay results are presented as the percent inhibition of specific binding in Table 4.

The target of assay [3] is human recombinant serotonin (5-Hydroxytryptamine) 5-HT7 receptor (Homo sapiens, UniProt P34969). As to the kind of experiment: Serotonin 5-HT7 radioligand binding assay. The conditions noted are these: [3H]LSD specific binding, read-out: Percent Inhibition of ligand binding, Serotonin (1 μM ligand concentration) 5-HT7. On the procedure: To evaluate in radioligand binding assays the activity of compounds of the invention, human recombinant serotonin (5-Hydroxytryptamine) 5-HT7 receptor expressed in Chinese hamster ovary (CHO) cells [Roth, B. L. et al., J. Pharmacol. Exp. Ther. (1994), 268:1403; Shen, Y. et al., J. Biol. Chem. (1993), 268:18200] in a modified Tris-HCl buffer (50 mM Tris-HCl, pH 7.4, 10 mM MgCl2, 0.5 mM EDTA) was used. Compounds of invention were incubated with 5.5 nM [^3H] Lysergic acid diethylamide (LSD) for 2 h at 25° C. Non-specific binding was estimated in the presence of 10 μM Serotonin (5-HT). Receptor proteins were filtered and washed, the filters were then counted to determine [^3H]LSD specifically bound. Compounds were screened at 1 μM or lower, using 1% DMSO as vehicle. Biochemical assay results are presented as the percent inhibition of specific binding in Table 4.
Sequence of human recombinant serotonin (5-Hydroxytryptamine) 5-HT7 receptor (P34969 whole entry): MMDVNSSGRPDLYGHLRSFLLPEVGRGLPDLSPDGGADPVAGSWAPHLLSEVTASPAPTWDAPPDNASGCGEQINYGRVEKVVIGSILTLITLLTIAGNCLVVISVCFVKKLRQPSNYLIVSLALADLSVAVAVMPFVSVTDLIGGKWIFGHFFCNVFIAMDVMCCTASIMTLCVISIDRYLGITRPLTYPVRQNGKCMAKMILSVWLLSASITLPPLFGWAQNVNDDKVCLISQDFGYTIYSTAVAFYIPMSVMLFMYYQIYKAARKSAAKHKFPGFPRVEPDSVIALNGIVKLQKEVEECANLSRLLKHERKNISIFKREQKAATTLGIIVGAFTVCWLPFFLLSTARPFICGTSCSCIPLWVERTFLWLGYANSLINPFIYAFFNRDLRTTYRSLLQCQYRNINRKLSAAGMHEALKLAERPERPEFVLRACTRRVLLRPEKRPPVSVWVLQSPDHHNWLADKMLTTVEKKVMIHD

Assay [4] concerns the target T3, rat adrenergic α1B receptor (Rattus norvegicus, UniProt P15823).
T3 construct: rat adrenergic α1B receptor obtained from Wistar Rat liver; from tissue; host or cells: Wistar Rat liver
T3 sequence (P15823 1-515): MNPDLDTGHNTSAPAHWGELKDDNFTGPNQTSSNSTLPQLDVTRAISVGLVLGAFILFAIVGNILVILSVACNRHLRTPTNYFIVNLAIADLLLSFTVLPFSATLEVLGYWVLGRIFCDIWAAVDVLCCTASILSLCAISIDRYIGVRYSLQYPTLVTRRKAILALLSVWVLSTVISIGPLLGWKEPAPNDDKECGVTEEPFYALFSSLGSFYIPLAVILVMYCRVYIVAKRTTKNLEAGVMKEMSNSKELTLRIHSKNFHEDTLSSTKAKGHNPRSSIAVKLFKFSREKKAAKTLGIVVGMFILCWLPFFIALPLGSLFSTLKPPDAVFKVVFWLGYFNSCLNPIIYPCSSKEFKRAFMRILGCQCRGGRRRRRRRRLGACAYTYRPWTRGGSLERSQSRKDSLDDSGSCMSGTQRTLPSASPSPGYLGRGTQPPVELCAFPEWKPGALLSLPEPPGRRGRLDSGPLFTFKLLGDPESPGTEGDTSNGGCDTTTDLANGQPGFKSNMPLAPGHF
Kind of assay: Adrenergic α1B radioligand binding assay. Conditions: [3H]Prozosin specific binding, read-out: Percent Inhibition of ligand binding, Adrenergic (0.1 μM ligand conc.) α1B. The method, then:
To evaluate in radioligand binding assays the activity of compounds of the invention, rat adrenergic α1B receptor obtained from Wistar Rat liver [Garcia-S′ainz, J. A. et al., Biochem. Biophys. Res. Commun. (1992), 186:760; Michel, A. D. et al., Br. J. Pharmacol. (1989), 98:883] in a modified Tris-HCl buffer (50 mM Tris-HCl buffer, pH 7.4, 0.5 mM EDTA) was used. Compounds of the invention were incubated with 0.25 nM [^3H]Prozosin for 60 min. at 25° C. Non-specific binding was estimated in the presence of 10 μM phentolamine. Receptor proteins were filtered and washed, the filters were then counted to determine [^3H]Prozosin specifically bound. Compounds were screened at 1 μM or lower, using 1% DMSO as vehicle. Compounds of the invention were tested in this biochemical assay. Biochemical assay results for representative compounds were presented as the percent inhibition of specific binding in Table 3.

T2 sequence (P28223 whole entry): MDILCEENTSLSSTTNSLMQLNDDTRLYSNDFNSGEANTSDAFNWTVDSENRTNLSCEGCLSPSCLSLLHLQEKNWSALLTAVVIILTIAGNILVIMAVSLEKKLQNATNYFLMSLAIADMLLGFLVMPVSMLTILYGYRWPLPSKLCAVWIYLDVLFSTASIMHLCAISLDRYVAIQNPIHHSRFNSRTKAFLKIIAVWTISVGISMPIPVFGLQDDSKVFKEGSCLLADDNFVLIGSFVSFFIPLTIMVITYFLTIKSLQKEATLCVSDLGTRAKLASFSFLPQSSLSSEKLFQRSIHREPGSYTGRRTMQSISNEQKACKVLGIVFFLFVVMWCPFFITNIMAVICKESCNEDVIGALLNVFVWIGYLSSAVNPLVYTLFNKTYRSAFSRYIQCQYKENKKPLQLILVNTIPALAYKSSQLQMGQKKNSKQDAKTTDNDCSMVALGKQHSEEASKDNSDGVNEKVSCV

For the compound `C/C(=C\n1c2c(c3cc(C)ccc31)C1CCN(C2)C1)c1ccncc1` (stereo not drawn) [Compound 44], the inhibition at 0.1 µM is 7% in assay [1] and 4% in assay [4]. The inhibition at 1 µM in assay [2] was determined as 67%; in assay [3] it was 80%.
The like results for `C/C(=C\n1c2c(c3cc(C)ccc31)C1CCN(C2)C1)c1ccccc1F` (stereo not drawn) [Compound 38] were, in that order, 13%, 29%, 90% and 95%.
In the case of `C/C(=C\n1c2c(c3cc(C)ccc31)C1CCN(C2)C1)c1ccc(Cl)cc1Cl` (stereo not drawn) [Compound 33], the inhibition at 0.1 µM was 16% in assay [1] and 28% in assay [4]. In addition, the inhibition at 1 µM worked out at 78% in assay [2] and 96% in assay [3].
The like results for `Cc1ccc2c(c1)c1c(n2C(=O)Cc2ccc(Cl)cc2)CN2CCC1C2` (stereo not drawn) [Compound 36] were, in that order, 24%, 4%, 89% and 75%.
For `COc1ccc(/C(C)=C/n2c3c(c4cc(C)ccc42)C2CCN(C3)C2)cc1` (stereo not drawn) [Compound 45], in that order: 3%, 20%, 98% and 93%.
For `C/C(=C\n1c2c(c3cc(C)ccc31)C1CCN(C2)C1)c1ccc(Cl)cc1` (stereo not drawn) [Compound 32], in that order: 39%, 67%, 86% and 96%.
